Measured values taken from PubChem BioAssay AID1259411 (Chemical Carcinogenesis Research Information System (CCRIS), 2018).
Active and inactive are the calls of the source. No rule for the calls is given here.

System: rodent carcinogenicity bioassays, tumor incidence
Assay: CCRIS carcinogenicity studies
In short: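 Archive of carcinogenicity, mutagenicity, tumor promotion and tumor inhibition results drawn from journals, NCI reports and other sources, expert-reviewed; covers 1985-2011 and is no longer updated.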

NC(=O)c1ccccc1C(N)=O
carcinogen call (Species: MOUSE, Strain/Sex: B6C3F1/FEMALE, Route: ORAL, Dose: 0, 6200, 12500, 25000 PPM IN DIET FOR 103-105 WK, Dose: 0, 6200, 12500, 25000 PPM IN DIET FOR 103-105 WK): inactive; negative | carcinogen call (Species: MOUSE, Strain/Sex: B6C3F1/MALE, Route: ORAL, Dose: 0, 25000, 50000 PPM IN DIET FOR 105 WK, Dose: 0, 25000, 50000 PPM IN DIET FOR 105 WK): inactive; negative | carcinogen call (Species: RAT, Strain/Sex: F344/FEMALE, Route: ORAL, Dose: 0, 5000, 10000 PPM IN DIET FOR 106 WK, Dose: 0, 5000, 10000 PPM IN DIET FOR 106 WK): inactive; negative | carcinogen call (Species: RAT, Strain/Sex: F344/MALE, Route: ORAL, Dose: 0, 15000, 30000 PPM IN DIET FOR 106 WK, Dose: 0, 15000, 30000 PPM IN DIET FOR 106 WK): inactive; negative

CNc1ccc(N(CCO)CCO)cc1[N+](=O)[O-]
carcinogen call (Species: MOUSE, Strain/Sex: B6C3F1/FEMALE, Route: ORAL, Dose: 0, 3000, 6000 PPM IN DIET FOR 103 WK FOR 103 WK (STUDY DURATION: 105 WK), Dose: 0, 3000, 6000 PPM IN DIET FOR 103 WK FOR 103 WK (STUDY DURATION: 105 WK), Tumor Site: Type of Lesion: LIVER: HEPATOCELLULAR CARCINOMA, HEPATOCELLULAR ADENOMA OR CARCINOMA): active; positive | carcinogen call (Species: MOUSE, Strain/Sex: B6C3F1/MALE, Route: ORAL, Dose: 0, 1500, 3000 PPM IN DIET FOR 103 WK FOR 103 WK (STUDY DURATION: 105 WK), Dose: 0, 1500, 3000 PPM IN DIET FOR 103 WK FOR 103 WK (STUDY DURATION: 105 WK), Tumor Site: Type of Lesion: LIVER: HEPATOCELLULAR ADENOMA, HEPATOCELLULAR CARCINOMA, THYROID GLAND: FOLLICULAR CELL ADENOMA): active; positive | carcinogen call (Species: RAT, Strain/Sex: F344/FEMALE, Route: ORAL, Dose: 0, 1500, 3000 PPM IN DIET FOR 103 WK FOR 103 WK (STUDY DURATION: 105 WK), Dose: 0, 1500, 3000 PPM IN DIET FOR 103 WK FOR 103 WK (STUDY DURATION: 105 WK), Tumor Site: Type of Lesion: LUNG: ALVEOLAR/BRONCHIOLAR ADENOMA OR CARCINOMA, UTERUS: ENDOMETRIAL STROMAL POLYP): active; positive | carcinogen call (Species: RAT, Strain/Sex: F344/MALE, Route: ORAL, Dose: 0, 1500, 3000 PPM IN DIET FOR 103 WK (STUDY DURATION: 105 WK), Dose: 0, 1500, 3000 PPM IN DIET FOR 103 WK (STUDY DURATION: 105 WK), Tumor Site: Type of Lesion: LIVER: HEPATOCELLULAR NEOPLASTIC NODULE OR CARCINOMA): equivocal

CC(C)COC(=O)c1ccc(O)cc1
carcinogen call (Species: MOUSE, Strain/Sex: ICR/FEMALE, Route: ORAL, Dose: 0, 0.15, 0.3, 0.6% IN DIET FOR 102 WK (STUDY DURATION: 106 WK), Dose: 0, 0.15, 0.3, 0.6% IN DIET FOR 102 WK (STUDY DURATION: 106 WK)): inactive; negative | carcinogen call (Species: MOUSE, Strain/Sex: ICR/MALE, Route: ORAL, Dose: 0, 0.15, 0.3, 0.6% IN DIET FOR 102 WK (STUDY DURATION: 106 WK), Dose: 0, 0.15, 0.3, 0.6% IN DIET FOR 102 WK (STUDY DURATION: 106 WK)): inactive; negative

CC1CN(N=O)CC(C)N1C (stereo not drawn)
carcinogen call (Species: RAT, Strain/Sex: F344/FEMALE, Route: ORAL, Dose: 0, 110 MG/L IN DRINKING WATER 5 D/WK FOR 26 WK, STUDY DURATION: 40-50 WK, Dose: 0, 110 MG/L IN DRINKING WATER 5 D/WK FOR 26 WK, STUDY DURATION: 40-50 WK, Tumor Site: Type of Lesion: THYMUS GLAND: LYMPHOMA OR LEUKEMIA, MULTIPLE SITES: LYMPHOMA OR LEUKEMIA, NASAL CAVITY: CARCINOMA, Tumor Site: Type of Lesion: THYMUS GLAND: LYMPHOMA OR LEUKEMIA, MULTIPLE SITES: LYMPHOMA OR LEUKEMIA, NASAL CAVITY: CARCINOMA): active; positive

CCC(C)(CC)c1cc(NC(=O)c2c(OC)cccc2OC)on1
carcinogen call (Species: Mouse, Strain/Sex: B6C3F1/Male (60/Group), Route: Oral, Dose: 0, 100, 1000, 12,500 ppm of 85% isoxaben (plus 10.5% closely related isomers) in diet for 2 yr, study duration 2 yr, Dose: 0, 100, 1000, 12,500 ppm of 85% isoxaben (plus 10.5% closely related isomers) in diet for 2 yr, study duration 2 yr, Tumor Site: Type of Lesion: Liver: Hepatocellular adenomas (increased incidence and multiplicity at 12,500 ppm)): active; positive | carcinogen call (Species: Rat, Strain/Sex: Fischer 344/Female (60/Group), Route: Oral, Dose: 0, 125, 1250, 12,500 ppm of 85% isoxaben (plus 10.5% closely related isomers) in diet for 2 yr, study duration 2 yr, Dose: 0, 125, 1250, 12,500 ppm of 85% isoxaben (plus 10.5% closely related isomers) in diet for 2 yr, study duration 2 yr): inactive; negative | carcinogen call (Species: Rat, Strain/Sex: Fischer 344/Male (60/Group), Route: Oral, Dose: 0, 125, 1250, 12,500 ppm of 85% isoxaben (plus 10.5% closely related isomers) in diet for 2 yr, study duration 2 yr, Dose: 0, 125, 1250, 12,500 ppm of 85% isoxaben (plus 10.5% closely related isomers) in diet for 2 yr, study duration 2 yr, Tumor Site: Type of Lesion: Adrenal gland: pheochromocytoma (highest dose)): active; positive

O=C(O)CN(CCN(CC(=O)O)CC(=O)O)CC(=O)O
carcinogen call (Species: MOUSE, Strain/Sex: B6C3F1/FEMALE, Route: ORAL, Dose: 0, 3750, 7500 PPM IN DIET, Dose: 0, 3750, 7500 PPM IN DIET): inactive; negative | carcinogen call (Species: MOUSE, Strain/Sex: B6C3F1/MALE, Route: ORAL, Dose: 0, 3750, 7500 PPM IN DIET, Dose: 0, 3750, 7500 PPM IN DIET): inactive; negative | carcinogen call (Species: RAT, Strain/Sex: F344/FEMALE, Route: ORAL, Dose: 0, 3750, 7500 PPM IN DIET, Dose: 0, 3750, 7500 PPM IN DIET): inactive; negative | carcinogen call (Species: RAT, Strain/Sex: F344/MALE, Route: ORAL, Dose: 0, 3750, 7500 PPM IN DIET, Dose: 0, 3750, 7500 PPM IN DIET): inactive; negative

O=C(CO)[C@@H](O)[C@H](O)[C@H](O)CO
carcinogen call (Species: RAT, Strain/Sex: SPRAGUE-DAWLEY/MALE, Route: ORAL, Dose: 0, 120 G/L IN DRINKING WATER AD LIBITUM FOR 30 WK (STUDY DURATION: 501 D)): inactive; negative

C#C[C@]1(O)CC[C@H]2[C@@H]3CCc4cc(OC)ccc4[C@H]3CC[C@@]21C
carcinogen call (Species: MOUSE, Route: ORAL, Tumor Site: Type of Lesion: MAMMARY GLAND, PITUITARY GLAND): active; positive | carcinogen call (Species: RAT, Route: ORAL, Tumor Site: Type of Lesion: MAMMARY GLAND): active; positive

CC(CCC(=O)N(CC(=O)O)N=O)C1CCC2C3C(O)CC4C[C@H](O)CCC4(C)C3C[C@H](O)C12C (stereo partly drawn)
carcinogen call (Species: RAT, Strain/Sex: F344/MALE, Route: GAVAGE, Dose: 0, 10 MG IN 50 µL DMSO 5 D/WK FOR 6 WK (STUDY DURATION: 108 WK), Tumor Site: Type of Lesion: LIVER: CARCINOMA): active; positive

CCCc1cc(=O)[nH]c(=S)[nH]1
carcinogen call (Species: HAMSTER, Route: ORAL, Tumor Site: Type of Lesion: THYROID GLAND): active; positive | carcinogen call (Species: MOUSE, Route: ORAL, Tumor Site: Type of Lesion: PITUITARY GLAND, THYROID GLAND): active; positive | carcinogen call (Species: RAT, Route: ORAL, Tumor Site: Type of Lesion: THYROID GLAND): active; positive

CCN(CC)C(=O)N(C)N=O
carcinogen call (Species: HAMSTER, Strain/Sex: SYRIAN/FEMALE, Route: SUBCUTANEOUS, Dose: 0, 7.75, 14.15, 28.3, 56.6 MG/KG IN 0.1 ML OLIVE OIL 1/WK FOR 52 WK (STUDY DURATION: LIFESPAN), Dose: 0, 7.75, 14.15, 28.3, 56.6 MG/KG IN 0.1 ML OLIVE OIL 1/WK FOR 52 WK (STUDY DURATION: LIFESPAN), Tumor Site: Type of Lesion: NASAL CAVITY: SQUAMOUS CELL CARCINOMA, SPLEEN: HEMANGIOENDOTHELIOMA, FORESTOMACH: SQUAMOUS CELL CARCINOMA, PAPILLOMA, Tumor Site: Type of Lesion: NASAL CAVITY: SQUAMOUS CELL CARCINOMA, SPLEEN: HEMANGIOENDOTHELIOMA, FORESTOMACH: SQUAMOUS CELL CARCINOMA, PAPILLOMA): active; positive | carcinogen call (Species: HAMSTER, Strain/Sex: SYRIAN/MALE, Route: GAVAGE, Dose: 0, 40 MG/ML ((0.2 ML OF A SOLUTION IN ETHYL ACETATE/CORN OIL (1:2)) 1/WK FOR 25 WK (STUDY DURATION: LIFE SPAN), Tumor Site: Type of Lesion: LIVER: HEMANGIOSARCOMA, CHOLANGIOMA OR CARCINOMA, SPLEEN: HEMANGIOSARCOMA, FORESTOMACH: SQUAMOUS CELL CARCINOMA OR PAPIL, Tumor Site: Type of Lesion: LIVER: HEMANGIOSARCOMA, CHOLANGIOMA OR CARCINOMA, SPLEEN: HEMANGIOSARCOMA, FORESTOMACH: SQUAMOUS CELL CARCINOMA OR PAPIL): active; positive | carcinogen call (Species: HAMSTER, Strain/Sex: SYRIAN/MALE, Route: SUBCUTANEOUS, Dose: 0, 7.75, 14.15, 28.3, 56.6 MG/KG IN 0.1 ML OLIVE OIL 1/WK FOR 52 WK (STUDY DURATION: LIFESPAN), Dose: 0, 7.75, 14.15, 28.3, 56.6 MG/KG IN 0.1 ML OLIVE OIL 1/WK FOR 52 WK (STUDY DURATION: LIFESPAN), Tumor Site: Type of Lesion: NASAL CAVITY: SQUAMOUS CELL CARCINOMA, SPLEEN: HEMANGIOENDOTHELIOMA, FORESTOMACH: SQUAMOUS CELL CARCINOMA, PAPILLOMA, Tumor Site: Type of Lesion: NASAL CAVITY: SQUAMOUS CELL CARCINOMA, SPLEEN: HEMANGIOENDOTHELIOMA, FORESTOMACH: SQUAMOUS CELL CARCINOMA, PAPILLOMA): active; positive
